Assay results: patent US11155580B2, “Modified proteins and methods of use thereof” (YALE UNIVERSITY, priority 2013, dated 2021)
Entries after “also recorded” stand apart in the source; their conditions may differ. Where no end group is shown, it is not given here. fluorescein = fluorescein label; rhodamine = not defined here; Rhod = not defined here

What was measured:
[1] = tested on: HeLa cells; test: Colocalization of rhodamine and fluorescein labeled miniature proteins and peptides; assay type: cell-based; settings: 1 μM each, 30 min, 37° C.
Protocol: HeLa cells were treated with a mixture of rhodamine—(indicated by the superscript R) and fluorescein—(indicated by the superscript F)—labeled miniature protein or peptide (1 μM each) for 30 min at 37° C., washed, and then imaged using confocal microscopy. […] The remaining molecules show high fluorescence, and molecules sharing the same sequence (but different labels) show high degrees of overlap, with R>0.68. The amino acid sequence of Arg8 is provided in SEQ ID NO:68.
Colocalization between rhodamine and fluorescein labeled miniature proteins and peptides, or between rhodamine labeled miniature proteins and markers of endocytosis was completed using confocal microscopy. […] Alexafluor-488-transferrin was detected using a 488 nm laser and a 520 nm long pass filter; tetraethylrhodamine and Alexafluor-546-transferrin were detected using a 546 nm laser line and a 580 nm long pass filter, Hoescht 33342 was detected using a 405 nm laser line and a 450 nm long pass filter. […] The fraction of rhodamine signal overlapping with EGFP signal (R E G) was calculated using Mander's coefficient and automatic thresholding. […]

[2] = tested on: U2OS(GIGI) cells; test: GIGI in lysates, stably transfected U2OS(GIGI) cells; assay type: cell-based
Text: RFUs are expressed±standard deviation (Excel). The maximum induction level is defined as RFUmax. Data were processed using Kaleidagraph and GraphPad Prism software. RFU=([I530]/[I580])−([I′530]/[I′580]) (1)
Y=Ymin+(Ymax−Ymin)/(1+10^logEC50-X) (2)

[3] = tested on: HeLa cells transfected with pGR-mCherry and Rab5-GFP or Rab5Q79L-GFP; test: GR-mCherry translocation in cells expressing Rab5-GFP or Rab5Q79L-GFP; assay type: cell-based; settings: for effect of Rab5Q79L on ability to reach the cytoplasm / TR: overexpression of Rab5Q79L-GFP
Protocol: Cotransfected cells expressing Rab-GFP fusions and pGR-mCherry were identified via their characteristic pattern of green and red fluorescence. The translocation ratio was determined using median values of mCherry fluorescence within the nucleus and surrounding region using CellProfiler.
HeLa cells transfected for 24-36 hr with pGR-mCherry and either Rab5-GFP or Rab5Q79L-GFP were plated (10^4/well in […]) the day prior to experiments in 96 well glass bottom plates (Matrical). The cells were washed with HKR buffer and the nuclei labeled using Hoescht as above. […] The cells were incubated for a further 30 min at 37° C. before imaging. Cells that had been cotransfected with EGFP fusions were identified via their characteristic pattern of green and red fluorescence. To evaluate the extent of GR activation, epifluorescence images were obtained as described above, except the fluorescence of pGR-mCherry was also visualized using Zeiss Filter Set #43 (ex BP 545/25 nm, FT 570, em BP 605/70 nm).
(§1) The image analysis algorithm used by CellProfiler is customizable and contained within a ‘Pipeline’ that describes a series of image manipulation and evaluation steps, such as reading the image, adjusting the intensity, and identifying objects. Each step has several options. […] Using the image of Hoescht fluorescence and Otsu's method of automatic thresholding, nuclei were identified and segmented using 3 class thresholding. The middle class was assigned to background. Closely approximated objects were separated using ‘Laplacian of Gaussian’ modeling, and touching nuclei were divided using the ‘shape’ option. Nuclear regions were expanded by 2 μm to generate an enlarged region. The nuclear region was subtracted from enlarged region to generate a ring surrounding the nucleus (surround). The diameter of the surrounding region was chosen to be 2 μm larger than the nucleus, within the range (1-3 μm) used by previously reported high content screens (Ding et al., 1998, J Biol Chem. 273:28897-28905; Peeraniet al., 2007, EMBO J. 26:4744-4755). The ratio of the median intensities of the nuclear and surrounding region of the GFP or mCherry (as appropriate) image were collected for every cell examined. Those cells falling below a threshold of intensity (10% of the maximum intensity of the image) were discarded as ‘untransfected’. Typically, 20-60 transfected cells from 15-30 images were examined for each experimental condition.

[4] = tested on: Saos-2(GIGT) cells; test: GIGT high-content imaging in stably transfected Saos-2(GIGT) cells; assay type: cell-based, human
Protocol: Saos2(GIGT) cells were plated onto 384-well plates (2,500 cells/well) in 40 μL of full McCoy's 5A and allowed to adhere overnight. […] Following treatment, cells were fixed with 4% paraformaldehyde for 20 min at room temperature and washed with PBS. […] Translocation ratios were determined using Acapella high content imaging and analysis software, with a script that processed the images in a manner similar to the CellProfiler pipeline described in the Supporting Information. Each data point represents 30-60 images containing over 100 cells.

[5] = tested on: HeLa cells transfected with GR-GFP; test: GR-GFP translocation assay (cytosolic access of Dex-labeled molecules); assay type: cell-based; settings: for effect of bafilomycin on TR: 200 nM bafilomycin pretreatment 1 h; for effect of bafilomycin on TR / effect of EIPA on TR / effect of dynasore on TR / effect of methyl-β-cyclodextrin (MβCD) on TR: then 1 μM; for translocation ratio (TR) / effect of EIPA on TR / effect of dynasore on TR / effect of methyl-β-cyclodextrin (MβCD) on TR: 30 min; for translocation ratio (TR): HeLa cells expressing GR-GFP; for effect of EIPA on TR: 50 μM EIPA pretreatment 30 min; for effect of dynasore on TR: 80 μM dynasore pretreatment 30 min; for effect of methyl-β-cyclodextrin (MβCD) on TR: 5 mM MβCD pretreatment 30 min
Protocol: HeLa cells transfected with pK7-GR-GFP were plated in Matrical plates as described above. To label nuclei, the media was replaced with HKR buffer containing 300 nM Hoescht and the cells incubated for 30 min at 37° C.
Cells were then analyzed as described above.
HeLa cells transfected with pK7-GR-GFP for 24-36 hr were plated (10^4/well in 200 μL) the day prior to experiments in 96 well glass bottom plates (Matrical). The media was replaced with HKR buffer containing 300 nM Hoescht and the cells incubated for 30 min at 37° C. […] The cells were incubated for a further 30 min at 37° C. before epifluorescence imaging using a Zeiss Axiovert 200M microscope fitted with a mRM digital camera, a 63×1.3NA PlanApo objective and an EXFO-Excite illumination source.
Uptake was allowed to proceed for an additional 30 min at 37° C. before analysis by epifluorescence images as described elsewhere herein.
as §1, with “The diameter of the surrounding region was chosen to be 2 μm larger than the nucleus, within the range (1-3 μm) used by previously reported high content screens (Ding et al., 1998, J Biol Chem. 273:28897-28905; Peeraniet al., 2007, EMBO J. 26:4744-4755).” left out

[6] = tested on: HeLa cells; test: Colocalization with Alexa-488-transferrin (Tf488), live cell confocal microscopy; assay type: cell-based; settings: 1 μM, 30 min
Protocol: To examine the colocalization of rhodamine labeled miniature proteins or peptides with Alexa-488-transferrin (Tf488), HeLa cells were plated (200 μl, 10^4 cells/well, 96 well glass bottom plates, Matrical) the day prior to experiments. The media was replaced with 150 μL Hepes-Krebs-Ringer's (HKR) buffer (140 mM NaCl, 2 mM KCl, 1 mM CaCl2, 1 mM MgCl2, 10 mM Hepes pH 7.4) containing 1 μM miniature protein or 25 nM Alexa-488-transferrin (Molecular Probes) and the cells incubated at 37° C. for 30 min. The cells were then rinsed twice with 200 μL, HKR buffer and nuclei were labeled by overlaying 200 μL HKR containing 300 nM Hoechst 33342 (Molecular Probes Cat. # H3570) for 5 minutes. Images of cells were acquired using a PerkinElmer LiveView spinning disk confocal microscope fitted with a 60×1.2 NA objective. Colocalization with Rab-GFP fusions was examined in an analogous way using HeLa cells transfected with the appropriate expression plasmid.
Colocalization between rhodamine and fluorescein labeled miniature proteins and peptides, or between rhodamine labeled miniature proteins and markers of endocytosis was completed using confocal microscopy. Live cell confocal microscopy was conducted using a PerkinElmer LiveView spinning disk confocal microscope fitted with heated microscope enclosure (maintained at 37° C.), a 60×1.2 NA objective, laser illumination, a Nipkow CSU-1× spinning disk, and a Hammamatsu CS9100 EMCCD camera operated using Velocity software. Alexafluor-488-transferrin was detected using a 488 nm laser and a 520 nm long pass filter; tetraethylrhodamine and Alexafluor-546-transferrin were detected using a 546 nm laser line and a 580 nm long pass filter, Hoescht 33342 was detected using a 405 nm laser line and a 450 nm long pass filter. Images were processed for presentation by using the ‘subtract background’ option and linear contrast adjustments in Image J. All adjustments were applied uniformly to the entire image. Colocalization analysis was performed using the JACOP plugin (Bolte and Cordelières, 2006), available on the ImageJ website. The fraction of rhodamine signal overlapping with EGFP signal (R E G) was calculated using Mander's coefficient and automatic thresholding. Pearson's correlation coefficient (R) was also obtained using the JACOP plugin.

[7] = tested on: HeLa cells; test: HPLC analysis of cytosolic extracts prepared with streptolysin O; assay type: cell-based; settings: HeLa cells treated with rhodamine labeled molecule
Protocol: To generate cytosolic extracts, HeLa cells were treated with streptolysin O (SLO), a well characterized bacterial toxin that creates pores in the plasma membranes of target cells (Walev et al., 2002, FASEB 16:237-239). […] Moreover, when the toxin is added to cultured cells at 4° C. and washed with PBS before raising the temperature to 37° C., pores are created only in the plasma membrane and the release of ER, golgi, or endolysosomal contents are avoided (Androlewicz et al., 1993, Proc Natl Acad Sci USA 90:9130-9134).
First, selective release of the cytoplasmic contents of HeLa cells using the published procedures was verified. HeLa cells were treated with 20 μg/mL SLO in PBS containing 5 mM DTT (20 min, 4° C.), washed (three PBS washes, 150 μL each), resuspended in PBS, and incubated at 37° C. for 15 min, after which 1.5 μM propidium iodide (PI), a marker of permeabilized cell membranes, was added.

[8] = target: cathepsin B (Homo sapiens, UniProt P07858); test: Resistance to acid proteases: cathepsin B; assay type: in vitro ADME; settings: 50 pmol, 30 min, 37° C., pH 5
Protocol: 50 pmol aPPR, 5.2R, 5.3R, ZF5.3R, TatR (SEQ ID NO:67), or Arg8R (SEQ ID NO:68) were incubated with 5 pg cathepsin B, D, or L for 30 min at 37° C. in 10 μL of 20 mM sodium phosphate buffer (pH 5) containing 150 mM NaCl. At the end of the incubation, the reaction was stopped by adding 40 μL of a solution containing a 84:15:1 ratio of water:EtOH:TFA before analysis by HPLC.

| Substance | cell fluorescence [1] | effect of Rab5Q79L on ability to reach the cytoplasm / TR [3] | effect of bafilomycin on TR [5] | translocation ratio (TR) ([5]; 1 μM) | effect of EIPA on TR [5] | effect of dynasore on TR [5] | effect of methyl-β-cyclodextrin (MβCD) on TR [5] | material found in SLO cytoplasmic extracts (HPLC) [7] | also measured |
| --- | --- | --- | --- | --- | --- | --- | --- | --- | --- |
| GPSQPTYPGDDAPVEDLIRFYNDLQQYLNVVTRHRYC^FLU-NH2 (GPSQPTYPGDDAPVEDLIRFYNDLQQYLNVVTRHRYC(fluorescein)-NH2) [aPPF] | low fluorescence |  |  |  |  |  |  |  |  |
| K^DexGRKKRRQRRRPPQY-NH2 (K(dexamethasone)GRKKRRQRRRPPQY-NH2) [TatDex] |  | blocked the ability | completely blocked the increase in TR | 2.85±0.10 | reduced, to background levels | reduced, to background levels | reduced, to background levels |  | eGFP expression ([2]; 1 μM, lysates): significant eGFP expression; TR (GR-mCherry), Rab5Q79L-GFP expressing cells ([3]; 1 μM, 30 min, Rab5Q79L-GFP): 1.26±0.03; TR (GR-mCherry), Rab5-GFP expressing cells ([3]; 1 μM, 30 min, wild-type Rab5-GFP): 1.57±0.04; translocation ratio (TR), GR★-GFP ([4]; 1 μM, 30 min, Saos-2(GIGT) cells): 2.28±0.24; increase in TR blocked by wortmannin ([5]; 200 nM wortmannin, 1 μM): 72% |
| K^RhodGPSQPTYPGDDAPVEDLIRFYNDLQQYLNVVTRHRY-NH2 (K(rhodamine)GPSQPTYPGDDAPVEDLIRFYNDLQQYLNVVTRHRY-NH2; reading uncertain; also: printed as K^RhodGPSQPTYPGDDAPVEDLIRFYNDLQQYLNVVTRHRY-NH2) [aPPR] | low fluorescence |  |  |  |  |  |  | little to no fluorescent material; also recorded: little or no aPPR is observed | intracellular red fluorescent signal [6]: little or no red fluorescent signal |
| K^RhodWYSCNVCGKAFVLSRHLNRHLRVHRRAT-NH2 (K(Rhod)WYSCNVCGKAFVLSRHLNRHLRVHRRAT-NH2; cysteine pairing not given here; reading uncertain; also: printed as KRhodWYSCNVCGKAFVLSRHLNRHLRVHRRAT-NH2) [ZF5.3R] |  | unaffected |  |  |  |  |  | can be recovered from cytosolic extracts; also recorded: a single peak with the same retention time as the starting material | degradation by cathepsin B (HPLC) [8]: little or no degradation; effect of wortmannin on TR ([5]; wortmannin treatment): unaffected |
| K^DexWYSCNVCGKAFVLSRHLNRHLRVHRRAT-NH2 (K(dexamethasone)WYSCNVCGKAFVLSRHLNRHLRVHRRAT-NH2; cysteine pairing not given here) [ZF5.3Dex] |  |  | reduced to background levels | 2.4±0.09 | reduced to background levels | reduced to background levels | reduced to background levels |  | EC50 fold lower than that of ZFN1-4Dex [2]: 70-80 fold; EC50 fold lower than that of wtZFDex [2]: 100 fold; EC50 ([2]; Dex-labeled peptides, 24 h, lysates, read-out: EC50 (eGFP expression, GIGI)): 1.4 nM; GR★-GFP translocation (GIGT) compared with wtZF and all four ZFN domains ([4]; GIGT): significantly higher levels; cells expressing GR★-GFP with significant translocation ratios ([4]; GIGT): greater than 99% |
